Experimental data reported in patent US20150064221A1, “COMPOUNDS HAVING IMMUNOMUDULATOR ACTIVITY” (priority 2012, published 2015).
Entries after “also recorded” stand apart in the source; their conditions may differ.

Assays:
[1] = test system: oxazolone-induced hypersensitivity; experiment: Oxazolone-induced dermatitis; assay type: in vivo, mice
[2] = test system: type II collagen-induced arthritis; experiment: Type II collagen-induced arthritis (CIA); assay type: in vivo, mice
Method: VGX-1027 was administered intraperitoneally and were measured for an arthritic score (A), cumulative arthritic score (B), hind paws edema (C), and histological score (D) were measured. Data are shown as mean values±SD form 2 independent experiments. Statistical analysis was performed by Student's t test. *p<0.0001 was taken as significant.
To induce CIA, the mice were injected intradermally at the base of the tail with […] of an emulsion containing […] of CII, and were boosted on day 21. In terms of treatment, VGX-1027 was used only as a “therapeutic” regime by administering the drug via intraperitoneal administration to mice with a clinical score equal or higher than 1. The mice were treated with vehicle, dexamethasone (0.3 mg/kg), or VGX-1027 (0.5 mg/mouse) for 10 consecutive days. The mice were assessed with the following scoring system: 0=no signs of arthritis; 1=swelling and/or redness of the paw or 1 digit; 2=involvement of 2 joints; 3=involvement of N2 joints, and 4=severe arthritis of the entire paw and digits. An arthritis index was calculated for each mouse by summing the scores for the individual paws. Other clinical severity measures were hind paw volume and histological assessment of damage; the latter was measured with the following criteria: 0=no damage; 1=edema; 2=presence of inflammatory cells; and 3-bone resorption.

PBMCs = experiment: Transcriptional profile analysis (microarray) of LPS-stimulated PBMCs; assay type: cell-based, human; set-up: mean/difference of means: scale not given here; settings: for mean/difference of means: VGX-treated vs LPS stimulated group
Method: Transcriptional profile analysis: PBMCs from three individual healthy donors, obtained from the University of Pennsylvania School of Medicine, Immunology Clinical Core. Cells (5×10̂6) were treated with either LPS (5 μg/ml), LPS (5 μg/ml)+VGX-1027 (10 uM) or PBS for 48 hours and subsequently, RNA was extracted using the RNeasy kit (Qiagen) following manufacturer's instructions.
RNA was hybridized to the Human Gene 1.0 ST array (Affymetrix). Microarray data were analyzed using the web-based utility Expression Profiler (http://www.ebi.ac.uk/expressionprofiler/). Data normalization was achieved by performing logarithmic transformation of all intensities followed by gene mean-centering. Multiple array probes were collapsed by averaging the intensities. Principal component analysis (PCA) was conducted on all genes to assign the general variability in the data to a reduced set of variables. Gene expression differences were assessed by means of Student's t test, and genes with a p<0.01 were considered differentially expressed. Selected genes were subjected to K-means clustering, using Euclidean distance as correlation measurement, and gene ontology (GO) analysis was performed using the Database for Annotation, Visualization and Integrated Discovery (DAVID) tool. Hierarchical clustering of selected genes was performed using Euclidean distance measurements as similarity comparison.

DNBS-induced colitis = settings: DNBS model; Mangano et al. 2008; cited from earlier work
[3] = elicitation phase: one hour after second oxazolone exposure
[4] = treated during or before the sensitization phase

## O=C(O)CC1CC(c2ccccc2)=NO1 (stereo not drawn) [VGX-1027, 3-phenyl-4,5-dihydro-5-isoxazoleacetic acid]
[1]; [3]
  ear thickness: significant decrease
  ear weight: not in weight
[1]; [4]
  ear thickness: significantly suppressed
  ear weight: significantly suppressed
[2]; after 3 days of therapy
  hind paw volume: significant decreases
  mean arthritic score: significant decreases
[2]; mouse, in vivo
  inflammation via histological measurement: improvements
[2]; therapeutic, i.p. 0.5 mg/mouse, 10 days
  clinical features of CIA: attenuated; also recorded: comparable to the amount observed with dexamethasone
PBMCs; K-means clustering
  genes in cluster strongly downregulated upon treatment: 525
PBMCs; LPS 5 μg/ml + 10 uM, 48 hours
  genes modulated relative to LPS: 895
PBMCs; gene 7912155, most down-regulated genes
  mean/difference of means: 0.111
PBMCs; gene 7923965, most down-regulated genes
  mean/difference of means: 0.439
PBMCs; gene 7945084, most down-regulated genes
  mean/difference of means: 0.165
PBMCs; gene 7997245, most up-regulated genes
  mean/difference of means: −0.0599
PBMCs; gene 8007069, most down-regulated genes
  mean/difference of means: 0.074
PBMCs; gene 8017100, most down-regulated genes
  mean/difference of means: 0.108
PBMCs; gene 8028281, most down-regulated genes
  mean/difference of means: 0.0791
PBMCs; gene 8043441, most up-regulated genes
  mean/difference of means: −0.406
PBMCs; gene 8077169, most down-regulated genes
  mean/difference of means: 0.153
PBMCs; gene 8094946, most down-regulated genes
  mean/difference of means: 0.07
PBMCs; gene 8102775, most down-regulated genes
  mean/difference of means: 0.101
PBMCs; gene 8104068, most down-regulated genes
  mean/difference of means: 0.118
PBMCs; gene 8134024, most down-regulated genes
  mean/difference of means: 0.0796
PBMCs; gene 8135943, most down-regulated genes
  mean/difference of means: 0.406
PBMCs; gene 8136446, most up-regulated genes
  mean/difference of means: −0.146
PBMCs; gene 8140035, most down-regulated genes
  mean/difference of means: 0.388
PBMCs; gene 8150101, most up-regulated genes
  mean/difference of means: −0.237
PBMCs; gene 8153835, most down-regulated genes
  mean/difference of means: 0.0829
PBMCs; gene 8160555, most down-regulated genes
  mean/difference of means: 0.171
PBMCs; gene ADAM19, most up-regulated genes
  mean/difference of means: −0.176
PBMCs; gene AIM2, most up-regulated genes
  mean/difference of means: −0.221
PBMCs; gene ALKBH5, most down-regulated genes
  mean/difference of means: 0.0698
PBMCs; gene APOBEC3G, most up-regulated genes
  mean/difference of means: −0.239
PBMCs; gene ATXN10, most up-regulated genes
  mean/difference of means: −0.131
PBMCs; gene BLNK, most up-regulated genes
  mean/difference of means: −0.398
PBMCs; gene BOLA3, most up-regulated genes
  mean/difference of means: −0.118
PBMCs; gene C1orf2, most down-regulated genes
  mean/difference of means: 0.106
PBMCs; gene C11orf53, most down-regulated genes
  mean/difference of means: 0.184
PBMCs; gene C20orf173, most down-regulated genes
  mean/difference of means: 0.14
PBMCs; gene CABYR, most down-regulated genes
  mean/difference of means: 0.135
PBMCs; gene CCKBR, most down-regulated genes
  mean/difference of means: 0.0588
PBMCs; gene CCL8, most up-regulated genes
  mean/difference of means: −1.08
PBMCs; gene CD22, most up-regulated genes
  mean/difference of means: −0.453
PBMCs; gene CD38, most up-regulated genes
  mean/difference of means: −0.468
PBMCs; gene CHML, most up-regulated genes
  mean/difference of means: −0.24
PBMCs; gene CIZ1, most down-regulated genes
  mean/difference of means: 0.0416
PBMCs; gene CLIC5, most up-regulated genes
  mean/difference of means: −0.175
PBMCs; gene CLU, most up-regulated genes
  mean/difference of means: −0.218
PBMCs; gene CPA3, most up-regulated genes
  mean/difference of means: −0.669
PBMCs; gene CYTH1, most down-regulated genes
  mean/difference of means: 0.0452
PBMCs; gene DNAH1, most up-regulated genes
  mean/difference of means: −0.134
PBMCs; gene EDN2, most down-regulated genes
  mean/difference of means: 0.0391
PBMCs; gene EGR4, most down-regulated genes
  mean/difference of means: 0.129
PBMCs; gene EOMES, most up-regulated genes
  mean/difference of means: −0.0887
PBMCs; gene ETNK2, most down-regulated genes
  mean/difference of means: 0.278
PBMCs; gene FAM108C1, most down-regulated genes
  mean/difference of means: 0.0544
PBMCs; gene FAS, most up-regulated genes
  mean/difference of means: −0.12
PBMCs; gene FCRL1, most up-regulated genes
  mean/difference of means: −0.301
PBMCs; gene FNBP1L, most down-regulated genes
  mean/difference of means: 0.203
PBMCs; gene FUK, most down-regulated genes
  mean/difference of means: 0.0866
PBMCs; gene GATAD1, most down-regulated genes
  mean/difference of means: 0.0258
PBMCs; gene GEN1, most up-regulated genes
  mean/difference of means: −0.368
PBMCs; gene GGTLC2, most down-regulated genes
  mean/difference of means: 0.179
PBMCs; gene HAGH, most down-regulated genes
  mean/difference of means: 0.0712
PBMCs; gene HISPPD2A, most down-regulated genes
  mean/difference of means: 0.0217
PBMCs; gene HSPA12B, most down-regulated genes
  mean/difference of means: 0.0281
PBMCs; gene KARS, most up-regulated genes
  mean/difference of means: −0.126
PBMCs; gene KCTD10, most up-regulated genes
  mean/difference of means: −0.0613
PBMCs; gene KLF3, most down-regulated genes
  mean/difference of means: 0.115
PBMCs; gene KLF10, most up-regulated genes
  mean/difference of means: −0.11
PBMCs; gene KLHDC4, most up-regulated genes
  mean/difference of means: −0.0727
PBMCs; gene LARS2, most up-regulated genes
  mean/difference of means: −0.176
PBMCs; gene LCP2, most up-regulated genes
  mean/difference of means: −0.0536
PBMCs; gene LRRC8D, most down-regulated genes
  mean/difference of means: 0.139
PBMCs; gene LYRM4, most up-regulated genes
  mean/difference of means: −0.294
PBMCs; gene MAGOH, most up-regulated genes
  mean/difference of means: −0.1
PBMCs; gene MOV10L1, most down-regulated genes
  mean/difference of means: 0.0753
PBMCs; gene MRPL15, most up-regulated genes
  mean/difference of means: −0.147
PBMCs; gene MRPS35, most up-regulated genes
  mean/difference of means: −0.164
PBMCs; gene NDUFA4, most up-regulated genes
  mean/difference of means: −0.0638
PBMCs; gene NLN, most up-regulated genes
  mean/difference of means: −0.217
PBMCs; gene OAS3, most up-regulated genes
  mean/difference of means: −0.134
PBMCs; gene OFCC1, most down-regulated genes
  mean/difference of means: 0.0379
PBMCs; gene PAH, most down-regulated genes
  mean/difference of means: 0.0906
PBMCs; gene PAK1IP1, most up-regulated genes
  mean/difference of means: −0.271
PBMCs; gene PGDS, most up-regulated genes
  mean/difference of means: −0.708
PBMCs; gene RGS1, most up-regulated genes
  mean/difference of means: −0.294
PBMCs; gene RPE, most up-regulated genes
  mean/difference of means: −0.116
PBMCs; gene SERPINI1, most down-regulated genes
  mean/difference of means: 0.187
PBMCs; gene SH3PXD2A, most down-regulated genes
  mean/difference of means: 0.0515
PBMCs; gene SLC38A2, most down-regulated genes
  mean/difference of means: 0.0979
PBMCs; gene SNORA24, most up-regulated genes
  mean/difference of means: −0.212
PBMCs; gene SNRNP70, most down-regulated genes
  mean/difference of means: 0.0617
PBMCs; gene SNX6, most up-regulated genes
  mean/difference of means: −0.0607
PBMCs; gene SPAG7, most up-regulated genes
  mean/difference of means: −0.149
PBMCs; gene SRFBP1, most up-regulated genes
  mean/difference of means: −0.124
PBMCs; gene TCL1A, most up-regulated genes
  mean/difference of means: −0.442
PBMCs; gene TNFRSF17, most up-regulated genes
  mean/difference of means: −0.295
PBMCs; gene TRABD, most down-regulated genes
  mean/difference of means: 0.0439
PBMCs; gene TSN, most up-regulated genes
  mean/difference of means: −0.105
PBMCs; gene TUSC3, most down-regulated genes
  mean/difference of means: 0.0955
PBMCs; gene TXNRD1, most down-regulated genes
  mean/difference of means: 0.117
PBMCs; gene UAP1L1, most down-regulated genes
  mean/difference of means: 0.0398
PBMCs; gene VIPR1, most down-regulated genes
  mean/difference of means: 0.123
PBMCs; gene WARS2, most up-regulated genes
  mean/difference of means: −0.246
PBMCs; gene WDR70, most up-regulated genes
  mean/difference of means: −0.0908
PBMCs; gene YPEL2, most down-regulated genes
  mean/difference of means: 0.183
PBMCs; gene ZNF596, most up-regulated genes
  mean/difference of means: −0.432
PBMCs; gene ZNF746, most down-regulated genes
  mean/difference of means: 0.0386
PBMCs; gene hCG_2024410, most up-regulated genes
  mean/difference of means: −0.102
DNBS-induced colitis
  colonic production of proinflammatory cytokines (IL-1β, TNF-α, IL-12p70, IFN-γ): reduced colonic production
